Results taken from the supplement of paper PMC9663587.

Assays:
[1] = compound: CC(=O)c1c(C)c2cnc(Nc3ccc(N4CCN(CCOCCOCCOCCNC(=O)COc5cccc6c5C(=O)N(C5CCC(=O)NC5=O)C6=O)CC4)cn3)nc2n(C2CCCC2)c1=O [BSJ-03-123]; test: increase in dead-cell fraction, 72 h; higher = more death;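 further: breast cancer cell lines in 384-well plates, stained with Hoechst plus LIVE/DEAD far red dye and imaged, cells above an LDR intensity threshold counted dead, Hoechst-negative corpses included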
[2] = compound: CC(=O)c1c(C)c2cnc(Nc3ccc(N4CCNCC4)cn3)nc2n(C2CCCC2)c1=O; test: as above
[3] = compound: CCN1CCN(Cc2ccc(Nc3ncc(F)c(-c4cc(F)c5nc(C)n(C(C)C)c5c4)n3)nc2)CC1; test: as above
[4] = compound: CCOc1cc2ncc(C#N)c(Nc3ccc(OCc4ccccn4)c(Cl)c3)c2cc1NC(=O)/C=C/CN(C)C [Neratinib/HKI272]; test: as above
[5] = compound: CCc1cnn2c(NCc3ccc[n+]([O-])c3)cc(N3CCCC[C@H]3CCO)nc12; test: as above
[6] = compound: CN(C)C(=O)c1cc2cnc(Nc3ccc(N4CCNCC4)cn3)nc2n1C1CCCC1 [LEE011/Ribociclib]; test: as above
[7] = compound: T1, CN(C)C/C=C/C(=O)Nc1ccc(C(=O)Nc2cccc(Nc3ncc(Cl)c(-c4c[nH]c5ccccc45)n3)c2)cc1 [THZ1]; test: as above
[8] = compound: T2, CN1CC[C@H](c2c(O)cc(O)c3c(=O)cc(-c4ccccc4Cl)oc23)[C@H](O)C1 [Flavopiridol]; test: as above
[9] = compound: CC(=O)c1c(C)c2cnc(Nc3ccc(N4CCNCC4)cn3)nc2n(C2CCCC2)c1=O; test: GR value, 72 h; higher = faster growth (1 = untreated, <0 = killing);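 further: breast cancer and non-malignant breast epithelial lines, nine half-log doses, viable cells counted by Hoechst and LIVE/DEAD dye imaging versus time-zero plates and DMSO controls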
[10] = compound: CN(C)C/C=C/C(=O)Nc1ccc(C(=O)N2CCC[C@@H](Nc3ncc(Cl)c(-c4c[nH]c5ccccc45)n3)C2)cc1 [THZ531]; test: as above
[11] = compound: T1, THZ1; test: as above
[12] = compound: T2, Flavopiridol; test: as above

## MCF12A
[1]; 0.001 µM
  increase in dead-cell fraction: -0.0046
[1]; 0.003162 µM
  increase in dead-cell fraction: 0.0003
[1]; 0.01 µM
  increase in dead-cell fraction: 0.0014
[1]; 0.03162 µM
  increase in dead-cell fraction: -0.0002
[1]; 0.1 µM
  increase in dead-cell fraction: 0.0054
[1]; 0.3162 µM
  increase in dead-cell fraction: 0.0008
[1]; 1 µM
  increase in dead-cell fraction: 0.0162
[1]; 3.162 µM
  increase in dead-cell fraction: 0.0226
[1]; 10 µM
  increase in dead-cell fraction: 0.151
[2]; 0.0003162 µM
  increase in dead-cell fraction: -0.0052
[2]; 0.001 µM
  increase in dead-cell fraction: -0.0036
[2]; 0.003162 µM
  increase in dead-cell fraction: -0.0043
[2]; 0.01 µM
  increase in dead-cell fraction: -0.0067
[2]; 0.03162 µM
  increase in dead-cell fraction: -0.005
[2]; 0.1 µM
  increase in dead-cell fraction: -0.003
[2]; 0.3162 µM
  increase in dead-cell fraction: 0.0031
[2]; 1 µM
  increase in dead-cell fraction: 0.006
[2]; 3.162 µM
  increase in dead-cell fraction: 0.0205
[3]; 0.001 µM
  increase in dead-cell fraction: -0.003
[3]; 0.003162 µM
  increase in dead-cell fraction: 0.0003
[3]; 0.01 µM
  increase in dead-cell fraction: -0.0021
[3]; 0.03162 µM
  increase in dead-cell fraction: 0.0015
[3]; 0.1 µM
  increase in dead-cell fraction: 0.006
[3]; 0.3162 µM
  increase in dead-cell fraction: 0.0113
[3]; 1 µM
  increase in dead-cell fraction: 0.0148
[3]; 3.162 µM
  increase in dead-cell fraction: 0.0231
[3]; 10 µM
  increase in dead-cell fraction: 0.0492
[4]; 0.0003162 µM
  increase in dead-cell fraction: -0.002
[4]; 0.001 µM
  increase in dead-cell fraction: 0.0045
[4]; 0.003162 µM
  increase in dead-cell fraction: 0.0065
[4]; 0.01 µM
  increase in dead-cell fraction: -0.0012
[4]; 0.03162 µM
  increase in dead-cell fraction: -0.0009
[4]; 0.1 µM
  increase in dead-cell fraction: 0.0012
[4]; 0.3162 µM
  increase in dead-cell fraction: 0.029
[4]; 1 µM
  increase in dead-cell fraction: 0.0776
[4]; 3.162 µM
  increase in dead-cell fraction: 0.146
[5]; 0.0001 µM
  increase in dead-cell fraction: -0.0058
[5]; 0.0003162 µM
  increase in dead-cell fraction: 0.0036
[5]; 0.001 µM
  increase in dead-cell fraction: 0.0056
[5]; 0.003162 µM
  increase in dead-cell fraction: -0.0029
[5]; 0.01 µM
  increase in dead-cell fraction: 0.0006
[5]; 0.03162 µM
  increase in dead-cell fraction: 0.0291
[5]; 0.1 µM
  increase in dead-cell fraction: 0.541
[5]; 1 µM
  increase in dead-cell fraction: 0.517
[6]; 0.001 µM
  increase in dead-cell fraction: 0.0031
[6]; 0.003162 µM
  increase in dead-cell fraction: -0.0078
[6]; 0.01 µM
  increase in dead-cell fraction: 0.0001
[6]; 0.03162 µM
  increase in dead-cell fraction: 0.0156
[6]; 0.1 µM
  increase in dead-cell fraction: 0.002
[6]; 0.3162 µM
  increase in dead-cell fraction: 0.0029
[6]; 1 µM
  increase in dead-cell fraction: 0.0076
[6]; 3.162 µM
  increase in dead-cell fraction: 0.0018
[6]; 10 µM
  increase in dead-cell fraction: 0.0126
[7]; 0.0001 µM
  increase in dead-cell fraction: 0
[7]; 0.0003162 µM
  increase in dead-cell fraction: -0.007
[7]; 0.001 µM
  increase in dead-cell fraction: 0.0031
[7]; 0.003162 µM
  increase in dead-cell fraction: 0.0056
[7]; 0.01 µM
  increase in dead-cell fraction: 0.0015
[7]; 0.03162 µM
  increase in dead-cell fraction: 0.0071
[7]; 0.1 µM
  increase in dead-cell fraction: 0.0475
[7]; 0.3162 µM
  increase in dead-cell fraction: 0.127
[7]; 1 µM
  increase in dead-cell fraction: 0.697
[8]; 0.0001 µM
  increase in dead-cell fraction: 0.0046
[8]; 0.0003162 µM
  increase in dead-cell fraction: 0.0087
[8]; 0.001 µM
  increase in dead-cell fraction: 0.0086
[8]; 0.003162 µM
  increase in dead-cell fraction: 0.0003
[8]; 0.01 µM
  increase in dead-cell fraction: -0.0016
[8]; 0.03162 µM
  increase in dead-cell fraction: 0.0044
[8]; 0.1 µM
  increase in dead-cell fraction: 0.0096
[8]; 0.3162 µM
  increase in dead-cell fraction: 0.0302
[8]; 1 µM
  increase in dead-cell fraction: 0.479
[9]; 0.0003162 µM
  GR value: 1.04 GR
[9]; 0.001 µM
  GR value: 1.03 GR
[9]; 0.003162 µM
  GR value: 1.02 GR
[9]; 0.01 µM
  GR value: 0.974 GR
[9]; 0.03162 µM
  GR value: 0.921 GR
[9]; 0.1 µM
  GR value: 0.889 GR
[9]; 0.3162 µM
  GR value: 0.912 GR
[9]; 1 µM
  GR value: 0.758 GR
[9]; 3.162 µM
  GR value: 0.667 GR
[10]; 0.0001 µM
  GR value: 0.942 GR
[10]; 0.0003162 µM
  GR value: 1.02 GR
[10]; 0.001 µM
  GR value: 1 GR
[10]; 0.003162 µM
  GR value: 0.929 GR
[10]; 0.01 µM
  GR value: 1.01 GR
[10]; 0.03162 µM
  GR value: 0.967 GR
[10]; 0.1 µM
  GR value: 1 GR
[10]; 0.3162 µM
  GR value: 0.894 GR
[10]; 1 µM
  GR value: -0.0356 GR
[11]; 0.0001 µM
  GR value: 0.997 GR
[11]; 0.0003162 µM
  GR value: 0.989 GR
[11]; 0.001 µM
  GR value: 1 GR
[11]; 0.003162 µM
  GR value: 0.958 GR
[11]; 0.01 µM
  GR value: 0.984 GR
[11]; 0.03162 µM
  GR value: 0.851 GR
[11]; 0.1 µM
  GR value: 0.569 GR
[11]; 0.3162 µM
  GR value: 0.338 GR
[11]; 1 µM
  GR value: -0.312 GR
[12]; 0.0001 µM
  GR value: 1.04 GR
[12]; 0.0003162 µM
  GR value: 0.977 GR
[12]; 0.001 µM
  GR value: 0.895 GR
[12]; 0.003162 µM
  GR value: 0.982 GR
[12]; 0.01 µM
  GR value: 0.961 GR
[12]; 0.03162 µM
  GR value: 0.949 GR
[12]; 0.1 µM
  GR value: 0.856 GR
[12]; 0.3162 µM
  GR value: 0.621 GR
[12]; 1 µM
  GR value: -0.121 GR
